“And” between values parts separate entries of the source, which are not always exact repeats. Equal entries are not always repeated.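 Protocol summary: plate cells (96-well), add compound at 5 concentrations, incubate 48 h, interpolate endpoints linearly. Abbreviation: GI50, concentration required for 50% inhibition of growth. TGI: concentration producing complete growth inhibition.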
Tests used:
Experiment in all cases: NCI anticancer screen, dose series, 48 h
MDA-N = system: MDA-N
SNB-78 CNS = system: SNB-78 CNS
LXFL 529 NSCLC = system: LXFL 529 NSCLC
DMS 273 small cell lung = system: DMS 273 small cell lung
DMS 114 small cell lung = system: DMS 114 small cell lung
M19-MEL melanoma = system: M19-MEL melanoma
HOP-18 NSCLC = system: HOP-18 NSCLC
RXF-631 renal = system: RXF-631 renal
XF 498 CNS = system: XF 498 CNS

| Compound | TGI (MDA-N) | TGI (SNB-78 CNS) | TGI (LXFL 529 NSCLC) | TGI (DMS 273 small cell lung) | TGI (DMS 114 small cell lung) | TGI (M19-MEL melanoma) | TGI (HOP-18 NSCLC) | TGI (RXF-631 renal) | TGI (XF 498 CNS) | other results |
| --- | --- | --- | --- | --- | --- | --- | --- | --- | --- | --- |
| CC1(C)CC(=O)C(C(c2cccc(O)c2O)C2C(=O)CC(C)(C)CC2=O)C(=O)C1 | > 100 µM |  |  |  |  |  |  |  |  |  |
| O=c1cc2n(c(=O)[nH]1)C1OC(C(O)C1O)[C@H]2CCO (some centres not stated) |  | > 100 µM | > 100 µM | > 100 µM | > 100 µM | > 100 µM |  |  |  |  |
| O=C(c1ccccn1)c1nnn2ccccc12 | > 100 µM |  |  |  |  |  |  |  |  |  |
| O=S(=O)(O)c1ccc(Cl)cc1.[Cd] | 68.9 µM |  |  |  |  |  |  |  |  | GI50 (MDA-N): 22.1 µM |
| Cc1cc(Cl)ccc1NC(=O)/C(Cl)=C(/Cl)C(=O)O | 60.9 µM |  |  |  |  |  |  |  |  |  |
| COC(=O)NNc1c([N+](=O)[O-])cnn(-c2ccccc2)c1=O | 4.79 µM |  | 3.16 µM | 4 µM | 13.8 µM | 3.43 µM | 6.28 µM | 3.88 µM |  |  |
| O=C(CCc1nnc2s/c(=C\c3ccc4c(c3)OCO4)c(=O)n12)Nc1cc(Cl)ccc1Cl |  | > 100 µM | > 100 µM | > 100 µM | > 100 µM | > 100 µM | > 100 µM | > 100 µM | > 100 µM |  |
| Nc1nc(=O)n(C2CC(O)C(O)C(CO)O2)cc1F (configuration not stated) |  | > 100 µM | > 100 µM |  | > 100 µM | > 100 µM | > 100 µM | > 100 µM | > 100 µM |  |
| C/C(=N\Nc1ccc2ccccc2n1)c1ccccc1O | > 100 µM |  |  |  |  |  |  |  |  |  |
| CN(C)c1ccccc1CC(c1c[nH]c2ccccc12)c1c[nH]c2ccccc12 |  | 32.5 µM |  | 27.9 µM | 20.4 µM | 29.1 µM |  |  | 31.5 µM |  |
| O=C(CC1(O)C(=O)Nc2c(Cl)cccc21)c1ccccc1 (configuration not stated) |  | > 100 µM | > 100 µM | > 100 µM | > 100 µM |  | > 100 µM |  | > 100 µM |  |
| O=C1C(c2ccc([N+](=O)[O-])cc2)=[N+]([O-])c2ccccc21 |  | 61.1 µM | > 100 µM |  | 27.1 µM | 41.5 µM | 26.5 µM |  |  |  |
| Cc1cc2cc(Cl)ccc2nc1C(=O)c1ccccc1 |  | > 100 µM | > 100 µM | > 100 µM | > 100 µM | > 100 µM | > 100 µM | > 100 µM | > 100 µM |  |
| CSC(=S)N/N=C/c1ccccc1 | > 100 µM |  |  |  |  |  |  |  |  |  |
| COC(=O)CSc1ccccc1 |  | > 100 µM | > 100 µM | > 100 µM |  | > 100 µM | > 100 µM | > 100 µM | > 100 µM |  |
| O=c1c2cc(Br)ccc2[nH]c(=S)n1-c1ccc(Br)cc1 |  | > 100 µM | > 100 µM |  | > 100 µM | > 100 µM | > 100 µM |  |  |  |
| CN(C)c1ccc(/C=C/C(=O)c2ccccc2)cc1Br |  |  | 28.8 µM |  | 36.9 µM | 37.1 µM |  |  | 31.2 µM |  |
| COc1ccc(C(=O)C(c2ccc(OC)cc2)C2C(=O)Oc3ccccc32)cc1 (configuration not stated) |  | > 100 µM | > 100 µM | > 100 µM | > 100 µM | > 100 µM | > 100 µM |  | > 100 µM | GI50 (XF 498 CNS): > 100 µM; GI50 (LXFL 529 NSCLC): > 100 µM; GI50 (DMS 273 small cell lung): > 100 µM; GI50 (DMS 114 small cell lung): > 100 µM; GI50 (M19-MEL melanoma): > 100 µM |
| CC(=O)Oc1ccc2ccc(=O)oc2c1OC(C)=O | > 100 µM |  |  |  |  |  |  |  |  |  |

| Compound | TGI (MDA-N) | TGI (SNB-78 CNS) | TGI (LXFL 529 NSCLC) | TGI (DMS 273 small cell lung) | TGI (DMS 114 small cell lung) | TGI (M19-MEL melanoma) | TGI (HOP-18 NSCLC) | TGI (RXF-631 renal) | TGI (XF 498 CNS) | other results |
| --- | --- | --- | --- | --- | --- | --- | --- | --- | --- | --- |
| C[N+](C)(C)CCC(=O)N1C/C(=C\c2ccccc2)C(=O)/C(=C/c2ccccc2)C1 | 3.36 µM | 22.9 µM | 13.5 µM | 5.33 µM | > 22.3 µM | 15.5 µM | 26.7 µM |  | 27.6 µM |  |
| COc1ccc(CN2C(=O)C(Cc3cc(OC)c(OC)c(C)c3OC)N(C(=O)OC(C)C)C(=O)/C2=C/c2cc(OC)c(OC)c(C)c2OC)cc1 (configuration not stated) |  |  | > 100 µM | > 100 µM | > 100 µM | > 100 µM | > 100 µM | > 100 µM |  |  |
| COc1ccc2c(CC(=O)O)cc(=O)oc2c1 | > 100 µM |  |  |  |  |  |  |  |  |  |
| O=C(O)CN(CC(=O)O)Cc1cc2c(cc1O)Oc1cc(O)c(CN(CC(=O)O)CC(=O)O)cc1C21OC(=O)c2ccccc21 | > 100 µM |  |  |  |  |  |  |  |  |  |
| CCOC(=O)C1c2[nH]c3ccccc3c2CCN1C(=O)c1ccco1 (configuration not stated) | > 10 µM |  |  |  |  |  |  |  |  |  |
| O=c1oc2c3ccc4ccccc4c3n(CCN3CCOCC3)c2c2ccccc12 |  |  | > 100 µM |  | > 100 µM | > 100 µM | > 100 µM |  |  |  |
| NC(=O)c1nnn(Cc2cc(Cl)c(C(=O)c3ccc(Cl)cc3)c(Cl)c2)c1N | > 46.9 µM | > 9.09 µM and 52.2 µM | > 9.09 µM and 21.1 µM | > 9.09 µM and 21.2 µM | > 9.09 µM and 23.3 µM | > 9.09 µM and 27.4 µM | > 9.09 µM and 36.4 µM | 53.9 µM | > 9.09 µM and 22.9 µM | GI50 (SNB-78 CNS): 19 µM; GI50 (XF 498 CNS): 10.8 µM; GI50 (HOP-18 NSCLC): 21.7 µM; GI50 (DMS 273 small cell lung): 5.77 µM; GI50 (DMS 114 small cell lung): 3.36 µM; GI50 (M19-MEL melanoma): 14.1 µM |
| COc1ccc2nc3cc(Cl)ccc3c(NCCC(=O)OCC(O)C(O)C(O[C@H](C)C(=O)NC(C)C(=O)NC(CCC(N)=O)C(=O)OCc3ccccc3)C(C=O)NC(C)=O)c2c1 (some centres not stated) |  | 80.8 µM | 31.2 µM | 27.6 µM |  | 34.4 µM |  | 36.9 µM | 33.5 µM |  |
| O=C1OC(c2ccccc2)C2CC3CC4(CCC3CN12)OCCO4 (configuration not stated) |  | > 100 µM | > 100 µM | > 100 µM |  |  |  | > 100 µM | > 100 µM |  |
| COC(=O)CCC(=O)CC(=O)C(=O)Nc1ccc(F)cc1 |  | > 100 µM | > 100 µM | > 100 µM | > 100 µM | > 100 µM | > 100 µM |  |  |  |
| N#Cc1ccc(/C=N\N2C(=O)c3ccccc3C2=O)cc1 |  | > 100 µM | > 100 µM | > 100 µM | > 100 µM | > 100 µM | > 100 µM |  | > 100 µM |  |
| Cc1ccccc1N=Cc1ccc(N(CCC#N)S(=O)(=O)c2ccccc2)cc1 |  | > 100 µM | > 100 µM | > 100 µM | > 100 µM | > 100 µM | > 100 µM | > 100 µM | > 100 µM |  |
| COc1c(OC(C)=O)c(OC(C)=O)cc2c1-c1ccc(OC)c(=O)cc1C(NC(C)=O)CC2 (configuration not stated) |  | > 100 µM | > 53 µM |  | 0.121 µM | > 100 µM | > 100 µM | 18.2 µM | 16.2 µM |  |
| COCC1C(=O)c2cc3c(cc2C12C=CC1(C=C2)OCCO1)OCO3 (configuration not stated) |  |  | 9.82 µM | 29.9 µM | 11.6 µM | 14.7 µM |  | 27.7 µM | 17.9 µM |  |
| O=C(O)CNC(=O)c1ccccc1O | > 100 µM |  |  |  |  |  |  |  |  |  |
| CCOc1cc(C=O)c2c(ccc3ccc(OC)c(OC)c32)c1OC | > 100 µM |  |  |  |  |  |  |  |  |  |
| CCOC(=O)NC(=O)c1cn(CCCCCOC(=O)NCCCCCCNC(=O)OCCCCCn2cc(C(=O)NC(=O)OCC)c(=O)[nH]c2=O)c(=O)[nH]c1=O |  | > 100 µM | > 100 µM | > 100 µM | > 100 µM | > 100 µM | > 100 µM |  |  |  |
| O=C1CSC(=S)N1c1ccc(F)cc1F | > 100 µM |  |  |  |  |  |  |  |  |  |

From PubChem BioAssay (NCI)
